Test results published in patent US9302999B2, “Substituted triazoles as herbicides” (E. I. DU PONT DE NEMOURS AND COMPANY, priority 2012, dated 2016).

What was measured:
Type in all cases: in vivo
[1] = system: foxtail, giant (giant foxtail, Setaria faberii); experiment: Test A pre-/postemergence: foxtail, giant; conditions: for Foxtail, Giant plant response rating: Postemergence; for Plant response rating, Foxtail, Giant: Preemergence
Procedure, shortened: (§1)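 Whole-plant greenhouse assay in loam/sand. Preemergence directed soil spray plus simultaneous postemergence spray (one- to two-leaf stage, 2–10 cm). Rated visually ~10 days later, 0 = no effect, 100 = complete control.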

[2] = system: ragweed (common ragweed, Ambrosia elation); experiment: Test C pre-/postemergence: ragweed
Procedure, shortened: (§2)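 Visual injury scored 0–100 (100 = complete control) against untreated controls after 13–15 greenhouse days. Surfactant-containing solvent formulations applied either to soil after sowing (loam/sand) or over 1- to 4-leaf plants, 2–18 cm tall.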

[3] = system: large crabgrass (Digitaria sanguinalis); experiment: Test C pre-/postemergence: large crabgrass
Procedure, shortened: as §2

corn (Zea mays) = experiment: Test C pre-/postemergence: corn
Procedure, shortened: as §2

[4] = system: blackgrass (Alopecurus myosuroides); experiment: Test C pre-/postemergence: blackgrass
Procedure, shortened: as §2

wild oat (Avena fatua) = experiment: Test C pre-/postemergence: wild oat
Procedure, shortened: as §2

[5] = system: crabgrass, large (large crabgrass, Digitaria sanguinalis); experiment: Test A pre-/postemergence: crabgrass, large; conditions: for Crabgrass, Large plant response rating: Postemergence; for Plant response rating, Crabgrass, Large: Preemergence
Procedure, shortened: as §1

[6] = system: johnsongrass (Sorghum halepense); experiment: Test C pre-/postemergence: johnsongrass
Procedure, shortened: as §2

soybean (Glycine max) = experiment: Test C pre-/postemergence: soybean
Procedure, shortened: as §2

[7] = system: barnyardgrass (Echinochloa crus-galli); experiment: Test A pre-/postemergence: barnyardgrass; conditions: for Barnyardgrass plant response rating: Postemergence; for Plant response rating, Barnyardgrass: Preemergence
Procedure, shortened: as §1

[8] = system: winter wheat (Triticum aestivum); experiment: Test C pre-/postemergence: winter wheat
Procedure, shortened: as §2

[9] = system: nutsedge, yellow (yellow nutsedge, Cyperus esculentus); experiment: Test C pre-/postemergence: nutsedge, yellow
Procedure, shortened: as §2

[10] = 125 g ai/ha, 0 to 100 scale, 0 is no effect, 100 is complete control
[11] = 500 g ai/ha, visual rating on 0 to 100 scale (0 no effect, 100 complete control), approximately ten days
[12] = 125 g ai/ha, 0 to 100 scale where 0 is no effect and 100 is complete control
[13] = 500 g ai/ha, 0 to 100 scale (0 no effect, 100 complete control)
[14] = Postemergence, 31 g ai/ha, scale 0 to 100 (0 no effect, 100 complete control)
[15] = Postemergence, 125 g ai/ha, scale 0 to 100, 0 no effect, 100 complete control
[16] = Postemergence, 250 g ai/ha, scale 0 to 100
[17] = Preemergence, 31 g ai/ha, scale of 0 to 100, 0 is no effect, 100 is complete control
[18] = Preemergence, 62 g ai/ha, scale of 0 to 100, 0 is no effect, 100 is complete control
[19] = Preemergence, 125 g ai/ha, scale 0 to 100, 0 no effect, 100 complete control
[20] = Preemergence, 250 g ai/ha, scale 0 to 100, 0 no effect, 100 complete control
[21] = Postemergence, 62 g ai/ha, scale 0 to 100 (0 no effect, 100 complete control)

Cc1nn(-c2ccc(F)c(F)c2)nc1Oc1ccnc(C(F)(F)F)c1 [Compound 145]
15: Plant response rating, Wheat [8, 21] | Plant response rating, Nutsedge, Yellow [9, 15] | Plant response rating, Nutsedge, Yellow [9, 16]
95: Plant response rating, Crabgrass, Large [3, 16]
5: Plant response rating, Soybean (soybean (Glycine max); [18]) | Plant response rating, Soybean (soybean (Glycine max); [19]) | Plant response rating, Wheat [8, 14] | Plant response rating, Wheat [8, 18] | Plant response rating, Wheat [8, 19] | Plant response rating, Nutsedge, Yellow [9, 14] | Plant response rating, Nutsedge, Yellow [9, 19]
20: Plant response rating, Oat, Wild (wild oat (Avena fatua); [14]) | Plant response rating, Johnsongrass [6, 21]
25: Plant response rating, Crabgrass, Large [3, 14] | Plant response rating, Corn (corn (Zea mays); [19])
100: Foxtail, Giant plant response rating [1, 11] | Plant response rating, Foxtail, Giant [1, 12] | Plant response rating, Foxtail, Giant [1, 13] | Plant response rating, Crabgrass, Large [3, 18] | Plant response rating, Crabgrass, Large [3, 19] | Plant response rating, Crabgrass, Large [3, 20] | Plant response rating, Crabgrass, Large [5, 12] | Plant response rating, Crabgrass, Large [5, 13] | Plant response rating, Johnsongrass [6, 19] | Plant response rating, Johnsongrass [6, 20] | Plant response rating, Barnyardgrass [7, 12] | Plant response rating, Barnyardgrass [7, 13]
0: Plant response rating, Ragweed [2, 17] | Plant response rating, Corn (corn (Zea mays); [17]) | Plant response rating, Johnsongrass [6, 17]
35: Plant response rating, Corn (corn (Zea mays); [14]) | Plant response rating, Johnsongrass [6, 18]
85: Plant response rating, Crabgrass, Large [3, 15] | Plant response rating, Blackgrass [4, 17]
50: Plant response rating, Crabgrass, Large [3, 21] | Plant response rating, Corn (corn (Zea mays); [16]) | Plant response rating, Soybean (soybean (Glycine max); [14]) | Plant response rating, Soybean (soybean (Glycine max); [21]) | Plant response rating, Wheat [8, 20]
30: Plant response rating, Wheat [8, 15]
45: Plant response rating, Corn (corn (Zea mays); [21]) | Plant response rating, Oat, Wild (wild oat (Avena fatua); [17])
80: Plant response rating, Oat, Wild (wild oat (Avena fatua); [16]) | Barnyardgrass plant response rating [7, 10]
55: Plant response rating, Ragweed [2, 20] | Plant response rating, Soybean (soybean (Glycine max); [15])
40: Plant response rating, Ragweed [2, 19] | Plant response rating, Oat, Wild (wild oat (Avena fatua); [21]) | Plant response rating, Wheat [8, 16]
10: Plant response rating, Ragweed [2, 18] | Plant response rating, Corn (corn (Zea mays); [18]) | Plant response rating, Blackgrass [4, 14] | Plant response rating, Johnsongrass [6, 14] | Plant response rating, Soybean (soybean (Glycine max); [20]) | Plant response rating, Nutsedge, Yellow [9, 21] | Plant response rating, Nutsedge, Yellow [9, 20]
98: Plant response rating, Crabgrass, Large [3, 17]
90: Foxtail, Giant plant response rating [1, 10] | Plant response rating, Blackgrass [4, 18] | Plant response rating, Blackgrass [4, 19] | Plant response rating, Blackgrass [4, 20] | Plant response rating, Oat, Wild (wild oat (Avena fatua); [19]) | Plant response rating, Oat, Wild (wild oat (Avena fatua); [20]) | Crabgrass, Large plant response rating [5, 10] | Crabgrass, Large plant response rating [5, 11] | Barnyardgrass plant response rating [7, 11]
75: Plant response rating, Johnsongrass [6, 16]
60: Plant response rating, Ragweed [2, 14] | Plant response rating, Corn (corn (Zea mays); [20]) | Plant response rating, Blackgrass [4, 21] | Plant response rating, Oat, Wild (wild oat (Avena fatua); [15]) | Plant response rating, Soybean (soybean (Glycine max); [16])
70: Plant response rating, Ragweed [2, 15] | Plant response rating, Ragweed [2, 16] | Plant response rating, Blackgrass [4, 15] | Plant response rating, Blackgrass [4, 16] | Plant response rating, Oat, Wild (wild oat (Avena fatua); [18]) | Plant response rating, Johnsongrass [6, 15]
